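These data come from cells grown in 96-well plates and exposed to compound for 48 hours at five concentrations. The concentration for full growth arrest is given as TGI.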
What was measured:
Experiment in all cases: inhibition of tumour cell growth, NCI panel, 48 h
[1] = test system: KM12 colon
[2] = test system: M14 melanoma
[3] = test system: TK-10 renal
[4] = test system: HCT-116 colon
[5] = test system: COLO 205 colon
[6] = test system: 786-0 renal
[7] = test system: SNB-19 CNS
[8] = test system: SNB-78 CNS
[9] = test system: M19-MEL melanoma
[10] = test system: DMS 273 small cell lung

Compound | TGI [1] [µM] | TGI [2] [µM] | TGI [3] [µM] | TGI [4] [µM] | TGI [5] [µM] | TGI [6] [µM] | TGI [7] [µM] | TGI [8] [µM] | TGI [9] [µM] | TGI [10] [µM]
COc1cc(C(O)C(=O)c2nc3ccc([N+](=O)[O-])cc3[nH]c2=O)ccc1O (stereo not given) | > 100 | > 100 | > 100 | > 100 | > 100 | > 100 | > 100 | > 100 | > 100 | > 100
CC1=NN(C(=O)CC(=O)NC(=O)CC(=O)Nc2ccccc2F)C(=O)C1N=Nc1ccc([N+](=O)[O-])cc1 (stereo not given) | > 100 | > 100 | > 100 | 35.5 | 69.2 | 64.6 | > 100 | > 100 | 92.8 | > 100
COC(=O)NC12CC3CC(CC(F)(C3)C1)C2 | > 100 | > 100 | > 100 | > 100 | > 100 | > 100 | > 100 | > 100 | > 100 | > 100
CN(C)C=[N+]=[N-] | > 100 | > 100 | > 100 | > 100 | > 100 | > 100 | > 100 | > 100 | > 100 | > 100
O=C(c1ccccc1)[C@@H]1C[C@H](Sc2ccccc2)c2cc(Cl)ccc2N1 | > 100 | 74.5 | 79.6 | 68.4 | > 100 | 33.6 | > 100 | > 100 | > 100 | 84
COc1cc2c(cc1OC)[C@H]1C(COC(=O)c3ccccc3)CSC(=Nc3ccccc3)N1CC2 (stereo not given in full) | > 100 | > 100 | > 100 | > 100 | > 100 | > 100 | > 100 | > 100 | > 100 | > 100
c1ccc2cc3[s+]snc3cc2c1 | > 100 | > 100 | > 100 | > 100 | > 100 | > 100 | > 100 | > 100 | > 100 | > 100
Cc1ccc(NC(=O)C(=O)CC(=O)c2c(C)n([O-])c3ccccc3[n+]2=O)cc1 | > 100 | 60.1 | > 100 | 37.2 | 55.2 | > 100 | > 100 | > 100 | 36.1 | 59.6
CC(C)(CN1CCCCC1)C(=O)/C=C/c1ccc(Cl)cc1 | 11.2 | 9.79 | 29.1 | 13 | 17.5 | 9.68 | 17 | 11.8 | 23.4 | 13.3
CCOC(=O)/C(=C\c1cccs1)P(=O)(OCC)OCC | 31.4 | 33.2 | > 100 | 33.7 | 30.4 | 47.2 | > 100 | > 100 | 45 | > 100
